Measured values reported in patent US12180226B2, “Spirotricycle RIPK1 inhibitors and methods of uses thereof” (Merck Sharp & Dohme LLC, priority 2021, dated 2024).
pEC50: −log10 of the molar value. Counter-ions that a name gives are not always drawn.

Target: RIPK1 (recombinant GST-RIPK1 kinase domain, residues 1-327) (Homo sapiens (Human), UniProt Q13546)
Experiment: RIPK1-ADP-Glo Enzymatic Assay
Format: biochemical
Conditions: ADP-Glo; 25 nM GST-RIPK1, 300 μM ATP; assay lower limit ~25 nM; read-out: RIPK1 V0 Ec50
Outline: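 Enzyme from baculovirus-infected Sf21 cells, 25 nM final, was pre-incubated 30 min at ambient temperature with compound (ten-point, 1:3 dilution from 100000 nM, 1% DMSO), then reacted 150 min with 300 μM ATP and 3 μM dephosphorylated MBP. ADP was read by luminescence; EC50 from four-parameter fit.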

Sequence of RIPK1 (recombinant GST-RIPK1 kinase domain, residues 1-327) (Q13546 1-327): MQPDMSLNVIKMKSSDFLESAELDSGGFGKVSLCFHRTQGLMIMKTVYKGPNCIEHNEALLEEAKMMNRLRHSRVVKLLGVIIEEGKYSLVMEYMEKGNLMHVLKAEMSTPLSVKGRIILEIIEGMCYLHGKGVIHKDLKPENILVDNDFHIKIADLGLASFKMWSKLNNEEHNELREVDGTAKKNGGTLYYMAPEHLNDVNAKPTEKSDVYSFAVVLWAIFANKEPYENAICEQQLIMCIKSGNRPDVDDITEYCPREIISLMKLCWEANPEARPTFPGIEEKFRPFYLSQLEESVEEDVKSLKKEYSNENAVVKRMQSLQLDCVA

| Structure (SMILES) | pEC50 |
| --- | --- |
| COc1ccnc(N2CCC3(CC2)O[C@@H]2CC[C@@H](c4ccccc4)N2C3=O)c1 [Example 11.30, (5′S,7a′R)-1-(4-methoxypyridin-2-yl)-5′-phenyltetrahydro-3′H-spiro[piperidine-4,2′-pyrrolo[2,1-b][1,3]oxazol]-3′-one] | 6.72 |
| O=C1N2[C@@H](CC[C@H]2c2ccccc2F)OC12CN(c1ncco1)C2 [Example 4.272, (5′S,7a′R)-5′-(2-fluorophenyl)-1-(1,3-oxazol-2-yl)tetrahydro-3′H-spiro[azetidine-3,2′-pyrrolo[2,1-b] [1,3]oxazol]-3′-one] | 6.03 |
| N#Cc1ccc(N2CCC3(CC2)O[C@@H]2CC[C@@H](c4ccccc4)N2C3=O)n2ncc(Cl)c12 [Example 4.182, 3-chloro-7-[(5′S,7a′R)-3′-oxo-5′-phenyltetrahydro-1H,3′H-spiro[piperidine-4,2′-pyrrolo[2,1-b] [1,3]oxazol]-1-yl]pyrazolo[1,5-a] pyridine-4-carbonitrile] | > 7.60 |
| O=C(c1ccn(C2CC2)n1)N1CCC2(CC1)O[C@@H]1CC[C@@H](c3cc(F)cc(F)c3)N1C2=O [Example 5.52, (5′S,7a′R)-1-(1-cycloprop-yl-1H-pyrazole-3-carbon-yl)-5′-(3,5-difluorophen-yl)tetrahydro-3′H-spiro [piperidine-4,2′-pyrrolo-[2,1-b]oxazol]-3′-one] | 7.05 |
| O=C(c1c(F)cccc1F)N1CCC2(CC1)O[C@@H]1CC[C@@H](c3cc(F)cc(F)c3)N1C2=O [Example 5.56, (5′S,7a′R)-1-(2,6-difluoro-benzoyl)-5′-(3,5-difluoro-phenyl)tetrahydro-3′H-spiro[piperidine-4,2′-pyrrolo[2,1-b]oxazol]-3'-one] | > 7.60 |
| Cc1ccnc(C(=O)N2CCC3(CC2)O[C@@H]2CC[C@@H](c4cc(F)cc(F)c4)N2C3=O)c1 [Example 6.102, (5′S,7a′R)-5′-(3,5-difluorophenyl)-1-(4-methylpyridine-2-carbonyl)tetrahydro-3′H-spiro[piperidine-4,2′-pyrrolo[2,1-b] [1,3]oxazol]-3′-one] | 7.31 |
| O=C1N2C(=NC13CCN(c1ccnc4c(F)cnn14)CC3)CC[C@H]2c1cc(F)cc(F)c1 [Example 4.79, (S)-5′-(3,5-difluorophenyl)-1-(3-fluoropyrazolo[1,5-a]pyrimidin-7-yl)-6′,7′-dihydro-3′H,5′H-spiro[piperidine-4,2′-pyrrolo[1,2-a]imidazol]-3′-one] | > 7.60 |
| CC1CN(c2cc(C#N)ncn2)CCC12O[C@@H]1CC[C@@H](c3ccccc3)N1C2=O (stereo partly drawn) [Example 4.237, 6-[(4R,5′S,7a′R)-3-methyl-3′-oxo-5′-phenyltetrahydro-1H,3′H-spiro[piperidine-4,2′-pyrrolo[2,1-b] [1,3]oxazol]-1-yl]pyrimidine-4-carbonitrile] | > 7.60 |
| O=C1N2[C@@H](CC[C@H]2c2ccccc2F)OC12CCN(c1ccnc(Cl)c1)CC2 [Example 4.268, (5′S,7a′R)-1-(2-chloropyridin-4-yl)-5′-(2-fluorophenyl)tetrahydro-3′H-spiro[piperidine-4,2′-pyrrolo[2,1-b] [1,3]oxazol]-3′-one] | > 7.60 |
| O=C1N2[C@@H](CC[C@H]2c2cc(F)cc(F)c2)OC12CCN(c1cncc3nccn13)CC2 [Example 13.8, (5′S,7a′R)-5′-(3,5-difluorophenyl)-1-(imidazo[1,2-a]pyrazin-5-yl)tetrahydro-3′H-spiro[piperidine-4,2′-pyrrolo[2,1-b]oxazol]-3′-one, TFA salt] | 6.18 |
| N#Cc1cc(N2CCC3(CC2)O[C@@H]2CC[C@@H](c4ccccc4)N2C3=O)ncn1 [Example 4.40, 6-[(5′S,7a′R)-3′-oxo-5′-phenyltetrahydro-1H,3′H-spiro[piperidine-4,2′-pyrrolo[2,1-b] [1,3]oxazol]-1-yl]pyrimidine-4-carbonitrile] | 7.49 |
| Cc1nccc(C(=O)N2CCC3(CC2)O[C@@H]2CC[C@@H](c4cc(F)cc(F)c4)N2C3=O)n1 [Example 6.95] | 6.61 |
| CC(C)(C)OC(=O)c1ccc(N2CCC3(CC2)O[C@@H]2CC[C@@H](c4ccccc4)N2C3=O)nc1 [Example 4.198, tert-butyl 6-[(5′S,7a′R)-3′-oxo-5′-phenyltetrahydro-1H,3′H-spiro[piperidine-4,2′-pyrrolo[2,1-b] [1,3]oxazol]-1-yl]pyridine-3-carboxylate] | 6.60 |
| O=C1N2[C@@H](CC[C@H]2c2ccccc2)OC12CCN(c1nc3ccccc3o1)CC2 [Example 4.154, (5′S,7a′R)-1-(1,3-benzoxazol-2-yl)-5′-phenyltetrahydro-3′H-spiro[piperidine-4,2′-pyrrolo[2,1-b] [1,3]oxazol]-3′-one] | 7.45 |
| O=C1N2[C@@H](CC[C@H]2c2cc(F)cc(F)c2)OC12CCN(c1ncnn3ccnc13)CC2 [Example 4.228, (5′S,7a′R)-5′-(3,5-difluorophenyl)-1-(imidazo[2,1-f] [1,2,4]triazin-4-yl)tetrahydro-3′H-spiro[piperidine-4,2′-pyrrolo[2,1-b] [1,3]oxazol]-3′-one] | 7.10 |
| N#Cc1ccc(N2CCC3(CC2)O[C@@H]2CC[C@@H](c4ccccc4)N2C3=O)n2ncc(-c3ncco3)c12 [Example 4.181, 3-(1,3-oxazol-2-yl)-7-[(5′S,7a′R)-3′-oxo-5′-phenyltetrahydro-1H,3′H-spiro[piperidine-4,2′-pyrrolo[2,1-b] [1,3]oxazol]-1-yl]pyrazolo[1,5-a] pyridine-4-carbonitrile] | 6.96 |
| O=C1N2[C@@H](CC[C@H]2c2cc(F)cc(F)c2)OC12CCN(c1nnc3cccnn13)CC2 [Example 13.9, (5′S,7a′R)-1-([1,2,4]triazolo[4,3-b]pyridazin-3-yl)-5′-(3,5-difluorophenyl)tetrahydro-3′H-spiro[piperidine-4,2′-pyrrolo[2,1-b]oxazol]-3′-one, TFA salt] | 6.47 |
| O=C1N2C(CCC2c2c(F)cccc2F)OC12CCN(c1ccnc3ccnn13)CC2 (centres unmarked) [Example 20.8, 5′-(2,6-difluorophenyl)-1-(pyrazolo[1,5-a]pyrimidin-7-yl)tetrahydro-3′H-spiro[piperidine-4,2′-pyrrolo[2,1-b][1,3]oxazol]-3′-one] | > 7.60 |
| O=C1N2[C@@H](CC[C@H]2c2cc(F)cc(F)c2)OC12CCN(c1ccc(OCC3CCO3)c3ccnn13)CC2 (mixture of isomers) [Example 19.5, (5′S,7a′R)-5′-(3,5-difluorophenyl)-1-(4-(((R and S)-oxetan-2-yl)methoxy)pyrazolo [1,5-a]pyridin-7-yl)tetrahydro-3′H-spiro[piperidine-4,2′-pyrrolo[2,1-b]oxazol]-3′-one, TFA salt] | 6.68 |
| N#Cc1ccc(N2CCC3(CC2)OC2CCC(c4cnccn4)N2C3=O)n2ncnc12 (centres unmarked) [Example 4.141, 5-[3′-oxo-5′-(pyrazin-2-yl)tetrahydro-1H,3′H-spiro[piperidine-4,2′-pyrrolo[2,1-b] [1,3]oxazol]-1-yl][1,2,4]triazolo[1,5-a] pyridine-8-carbonitrile] | > 7.60 |
| Cc1nccnc1C(=O)N1CCC2(CC1)O[C@@H]1CC[C@@H](c3cc(F)cc(F)c3)N1C2=O [Example 6.2, (5′S,7a′R)-5′-(3,5-difluorophenyl)-1-(3-methylpyrazine-2-carbonyl)tetrahydro-3′H-spiro[piperidine-4,2′-pyrrolo[2,1-b] [1,3]oxazol]-3′-one] | 6.31 |
| O=C(c1ccon1)N1CCC2(CC1)O[C@@H]1CC[C@@H](c3cc(F)cc(F)c3)N1C2=O [Example 5.45] | 7.51 |
| N#Cc1cccc(S(=O)(=O)N2CCC3(CC2)O[C@@H]2CC[C@@H](c4cc(F)cc(F)c4)N2C3=O)c1 [Example 8.3, 3-{[(5′S,7a′R)-5′-(3,5-difluorophenyl)-3′-oxotetrahydro-1H,3′H-spiro[piperidine-4,2′-pyrrolo[2,1-b][1,3]oxazol]-1-yl]sulfonyl]benzonitrile] | 6.67 |
| Cc1nc(N2CCC3(CC2)O[C@@H]2CC[C@@H](c4ccccc4)N2C3=O)ncc1-c1ncnn1C [Example 21.7, (5′S,7a′R)-1-[4-methyl-5-(1-methyl-1H-1,2,4-triazol-5-yl)pyrimidin-2-yl]-5′-phenyltetrahydro-3′H-spiro[piperidine-4,2′-pyrrolo[2,1-b][1,3]oxazol]-3′-one] | 6.74 |
| N#Cc1ccc(N2CCC3(CC2)O[C@@H]2CC[C@@H](c4ccccc4)N2C3=O)c(F)c1 [Example 4.73, 3-fluoro-4-[(5′S,7a′R)-3′-oxo-5′-phenyltetrahydro-1H,3′H-spiro[piperidine-4,2′-pyrrolo[2,1-b] [1,3]oxazol]-1-yl]benzonitrile] | > 7.60 |
| CC(C)(C)OC(=O)/C=C/c1ccc(N2CCC3(CC2)O[C@@H]2CC[C@@H](c4ccccc4)N2C3=O)nc1 [Example 4.163, tert-butyl (2E)-3-{6-[(5′S,7a′R)-3′-oxo-5′-phenyltetrahydro-1H,3′H-spiro[piperidine-4,2′-pyrrolo[2,1-b] [1,3]oxazol]-1-yl]pyridin-3-yl}prop-2-enoate] | 7.52 |
| O=C1N2[C@@H](CC[C@H]2c2ccccc2F)OC12CCN(c1ccnc3c(F)cnn13)CC2 [Example 4.102, (5′S,7a′R)-5′-(2-fluorophenyl)-1-(3-fluoropyrazolo[1,5-a]pyrimidin-7-yl)tetrahydro-3′H-spiro[piperidine-4,2′-pyrrolo[2,1-b]oxazol]-3′-one] | > 7.60 |
| N#Cc1ccc(N2CCC3(CC2)O[C@@H]2CC[C@@H](c4ccccc4)N2C3=O)c2ccnn12 [Example 13.19, 4-((5′S,7a′R)-3′-oxo-5′ phenyltetrahydro-3′H-spiro[piperidine-4,2′-pyrrolo[2,1-b]oxazol]-1-yl)pyrazolo[1,5-a]pyridine-7-carbonitrile, TFA salt] | > 7.60 |
| O=C1N2[C@@H](CC[C@H]2c2cc(F)cc(F)c2)OC12CCN(C(c1ccccc1)C(F)F)CC2 (single isomer, unassigned) [Example 22.2, (5′S,7a′R)-1-(2,2-Difluoro-1-phenylethyl)-5′-(3,5-difluorophenyl)tetrahydro-3′H-spiro[piperidine-4,2′-pyrrolo[2,1-b]oxazol]-3′-one] | 6.61 |
